Where “and” joins values, the source holds several entries; their conditions need not be identical. Equal values may be shown once. Entries after “also recorded” stand apart in the source; their conditions may differ. Read-outs that look alike come from different tables or passages of the source.
How the values were obtained:
[1] = target: T1, LRRC8/VRAC (Homo sapiens, UniProt Q8IWT6); test: Patch-clamp whole-cell recording of hypotonicity-activated VRAC/LRRC8 chloride current (ICl,swell); assay type: cell-based; conditions: for Inhibition at 10 μM (%) of chloride conductance / inhibition at 10 µM: 10 μM inhibitor, -100 mV; for inhibition at 10 µM: read-out: Inhibition at 10 μM (%) of chloride conductance; for Hill coefficient (chloride conductance): WT HEK-293, fitted concentration-response curve at -100 mV; for IC50: read-out: IC50 (chloride conductance); for Effect on hypotonic-activated Cl- currents at 20 μM / inhibition at 20 µM: 20 μM inhibitor
T1 construct: tested in wild-type HEK-293 cells expressing LRRC8 proteins; endogenous in cells; host or cells: wild-type HEK-293 cells
T1 sequence (Q8IWT6 1-810): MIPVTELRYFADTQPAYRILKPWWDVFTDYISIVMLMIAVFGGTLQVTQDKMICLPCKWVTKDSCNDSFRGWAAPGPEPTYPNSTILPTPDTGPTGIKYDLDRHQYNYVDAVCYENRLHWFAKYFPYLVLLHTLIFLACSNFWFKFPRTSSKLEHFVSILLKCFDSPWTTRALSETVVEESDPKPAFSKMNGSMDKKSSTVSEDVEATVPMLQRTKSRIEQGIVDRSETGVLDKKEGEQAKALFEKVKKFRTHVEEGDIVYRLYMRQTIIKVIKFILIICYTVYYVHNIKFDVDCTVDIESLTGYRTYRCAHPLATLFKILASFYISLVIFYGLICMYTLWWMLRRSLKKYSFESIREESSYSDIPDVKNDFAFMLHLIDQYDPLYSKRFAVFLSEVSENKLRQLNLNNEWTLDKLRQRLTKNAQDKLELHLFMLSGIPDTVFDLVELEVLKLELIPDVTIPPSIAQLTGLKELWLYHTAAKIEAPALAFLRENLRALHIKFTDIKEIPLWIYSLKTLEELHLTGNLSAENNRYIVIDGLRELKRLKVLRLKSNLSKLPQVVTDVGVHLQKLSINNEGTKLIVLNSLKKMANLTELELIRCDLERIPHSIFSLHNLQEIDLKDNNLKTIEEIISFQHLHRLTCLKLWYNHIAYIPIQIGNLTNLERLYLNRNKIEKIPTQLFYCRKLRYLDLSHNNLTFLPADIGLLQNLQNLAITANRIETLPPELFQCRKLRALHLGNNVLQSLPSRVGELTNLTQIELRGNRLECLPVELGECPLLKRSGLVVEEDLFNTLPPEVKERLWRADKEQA
T1 sequence (Q7L1W4 1-858 partner): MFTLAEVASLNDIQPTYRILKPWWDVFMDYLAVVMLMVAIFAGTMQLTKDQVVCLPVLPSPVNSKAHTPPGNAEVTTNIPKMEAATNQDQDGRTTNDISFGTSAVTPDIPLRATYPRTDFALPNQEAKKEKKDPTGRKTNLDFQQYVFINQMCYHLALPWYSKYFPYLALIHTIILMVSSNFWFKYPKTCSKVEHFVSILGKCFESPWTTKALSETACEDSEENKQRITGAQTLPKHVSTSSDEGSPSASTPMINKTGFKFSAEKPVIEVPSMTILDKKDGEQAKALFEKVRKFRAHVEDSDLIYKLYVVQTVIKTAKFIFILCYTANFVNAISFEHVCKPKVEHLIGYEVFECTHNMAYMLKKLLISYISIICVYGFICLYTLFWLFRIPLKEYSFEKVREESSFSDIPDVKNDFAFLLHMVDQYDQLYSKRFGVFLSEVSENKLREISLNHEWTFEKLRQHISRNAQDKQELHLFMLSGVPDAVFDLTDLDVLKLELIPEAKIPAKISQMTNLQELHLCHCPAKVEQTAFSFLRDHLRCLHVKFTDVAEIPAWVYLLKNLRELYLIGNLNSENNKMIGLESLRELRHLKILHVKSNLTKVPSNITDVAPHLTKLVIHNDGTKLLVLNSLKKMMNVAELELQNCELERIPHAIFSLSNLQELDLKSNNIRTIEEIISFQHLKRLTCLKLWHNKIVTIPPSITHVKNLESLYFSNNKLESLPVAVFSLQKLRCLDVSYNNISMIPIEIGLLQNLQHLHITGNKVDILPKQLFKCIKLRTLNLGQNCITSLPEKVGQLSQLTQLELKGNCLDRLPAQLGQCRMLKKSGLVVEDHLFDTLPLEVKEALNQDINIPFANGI
Protocol: The ruptured-whole-cell configuration of the patch-clamp technique was used to measure the activation of VRAC conductance during hypotonic experimental conditions. Cell currents and cell capacitances were recorded using an EPC 10 amplifier [HEKA Elektronik, Lambrecht (Pfalz), Germany]. The membrane potential of the cells was held at -50 mV, and 400-ms pulses from -100 to +100 mV were applied in 20-mV increments. The I/V relationships were expressed as the mean current amplitudes measured at all potentials at 6–10 ms after the pulse onset.
The pipette solution contained (in mM) 140 NMDGCl, 10 HEPES (pH 7.4, HCl), 5 EGTA and 5 MgATP (290 mOsm.l^-1). The normal NMDGCl bath solution contained (in mM) 140 NMDGCl, 10 HEPES (pH 7.4, HCl), 1 CaCl2, 1 MgCl2, and ∼70 mannitol (340 mOsm.l^-1). This solution was designed to prevent the spontaneous activation of VRAC currents. Hypo-osmotic NMDGCl solution (270 mOsm.l^-1) was obtained by removing the mannitol from the NMDGCl bath solution.
Patch-clamp whole-cell recordings were performed in iso-osmotic bath solution (control condition), and the solution was rapidly exchanged to the hypo-osmotic solution. The hypotonic condition was maintained until the LRRC8/VRAC current had stabilized at its maximal value (3–6 min). The percent inhibition at each concentration of inhibitor was calculated at -100 mV holding potentials after at least 2 min of constant perfusion.
Concentration-response curves, IC50 and Hill slope were fitted and determined using the following equations:
Span=Top−Bottom y=Bottom+(Top−Bottom)/1+10^(LogIC50−x)^*Hill Slope

[2] = test system: HEK-293 WT cells; test: Regulatory volume decrease (RVD) after hypotonic challenge, calcein fluorescence self-quenching; assay type: cell-based, human; conditions: for RVD inhibition at 10 μM (%) / inhibition at 10 µM: 10 μM inhibitor, after 30 min; for Effect on RVD at 30 μM: 30 μM inhibitor; for inhibition at 10 µM: Homo sapiens, HEK293, 0.5 h
Protocol: Measurements of changes in cell volume were performed using the calcein fluorescence self-quenching method. Briefly, calcein at high concentrations undergoes spontaneous self-quenching, and its fluorescence intensity decreases with increasing calcein concentration ([Capó-Aponte et al., 2005]). The variation in the fluorescence due to self-quenching indirectly reflects the volume of the cell.
HEK-293 WT and HEK-293 LRRC8-KO cells were cultured on polylysine-coated 24-well plates for 2 days. The cells were then loaded for 40 min with a solution containing 10 μM calcein-AM (Sigma–Aldrich) and washed 3 times with 1 ml of isotonic medium containing (in mM) 145 NaCl, 5 KCl, 1 MgCl2, 1 CaCl2, 10 glucose, and 10 HEPES pH 7.4 (300 mOsm.l^-1). Under this control experimental condition, basal fluorescence was measured every 90 s for 10 min using a plate reader (Ex: 460 nm, Em: 520 nm; Synergy HT, Biotek). After the baseline recording period (10 min), the medium was exchanged and replaced with iso- or hypo-osmotic bath solution adjusted to 200, 150, or 100 mOsm.l^-1. The change in fluorescence induced by replacement of the medium was then recorded over the following 50 min. The experiments were performed under control conditions and in the presence of various concentrations of inhibitors. The percent inhibition resulting from exposure of the cells to solutions containing a concentration of 10 μM for each inhibitor was calculated after maintaining the cells in hypotonic bath solution in the presence of the inhibitor for 30 min.

[3] = test system: CFTR; conditions: cited from earlier work
[4] = test system: other chloride channels (CFTR, CaCC, ClC); parameters: method as in Decher et al. (2001); conditions: 10 μM; ref Decher et al. (2001); cited from earlier work
[5] = test system: ICl,swell; parameters: method as in Decher et al. (2001); conditions: ref Decher et al. (2001); cited from earlier work
[6] = test system: CaCC; parameters: method as in Namkung et al. (2013); conditions: ref Namkung et al. (2013); cited from earlier work
[7] = whole-cell, WT HEK-293, hypotonic solution 270 mOsm.l^-1, calculated at -100 mV
[8] = 100 mOsm.l^-1 hypotonic challenge, 10 µM
[9] = 100 mOsm.l^-1 hypotonic challenge

Row | SMILES | inhibition at 10 µM ([1]; whole-cell) [%] | Hill coefficient (chloride conductance) ([1]; whole-cell) | IC50 [1, 7] | RVD inhibition at 10 μM (%) [2, 8] [%] | Effect on RVD at 30 μM [2, 9] | inhibition at 10 µM [2, 9] [%] | Effect on hypotonic-activated Cl- currents at 20 μM ([1]; whole-cell) | inhibition at 20 µM ([1]; whole-cell) [%] | other results
1 | O=C(O)c1cccnc1Nc1cccc(C(F)(F)F)c1 [NFA, niflumic acid] | 23 ± 4 | 0.8 ± 0.4 | 55 µM and 55.2 µM | 19.9 ± 7.2 | maximally inhibited the RVD process | 20 ± 7 | – | – | Inhibition at 10 μM (%) of chloride conductance ([1]; whole-cell, 10 µM): 22.5 ± 4.0%; Effect on hypotonically activated Cl- current at 100 μM ([1]; 100 μM inhibitor, whole-cell): maximal inhibitory effect
2 | Cc1ccc(C2Nc3ccccc3-n3c(-c4ccccc4)c4c(=O)n(C)c(=O)n(C)c4c32)o1 (stereo not shown) [PPQ-102] | 18.3 ± 11.3 | 2.2 ± 1.2 | 20 µM and 19.6 µM | 29.8 ± 5.9 | fully inhibited RVD | 30 ± 6 | – | – | IC50 ([3]; ref Tradtrantip et al., 2009, read-out: IC50 (CFTR)): < 0.1 µM; Effect on ICl,swell at 1 μM ([1]; 1 μM inhibitor, whole-cell): ineffective; inhibition at 30 µM ([1]; 30 μM inhibitor, whole-cell): > 85%
3 | O=C(O)c1ccc(/C=C2\SC(=S)N(c3cccc(C(F)(F)F)c3)C2=O)cc1 [CFTRinh-172] | – | – | – | – | – | – | minor effect | – | IC50 ([3]; ref Ma et al., 2002, read-out: IC50 (CFTR)): 0.3 µM; Inhibition at 10 μM (%) of chloride conductance ([1]; whole-cell): No effect; Effect on hypotonic-activated Cl- currents at up to 10 μM ([1]; concentrations of up to 10 μM, whole-cell): almost no effect; Effect on VRAC current at up to 20 μM ([1]; concentrations of up to 20 μM): no significant effect; IC50 (chloride conductance) [1, 7]: No effect; RVD inhibition at 10 μM (%) [2, 9]: No effect; Effect on RVD at up to 20 μM ([2]; concentrations of up to 20 μM): no significant effect; Effect on RVD at doses lower than 30 μM ([2]; lower doses than 30 μM): ineffective
4 | O=C(CNc1ccc2ccccc2c1)N/N=C/c1cc(Br)c(O)c(Br)c1O [GlyH-101] | 46.6 ± 8.8 | 0.9 ± 0.4 | 10 µM and 9.5 µM | – | – | – | – | > 85 | IC50 ([3]; ref Muanprasat et al., 2004, read-out: IC50 for CFTR): ~5 µM
5 | CCCCC1(C2CCCC2)Cc2cc(OCCCC(=O)O)c(Cl)c(Cl)c2C1=O (stereo not shown) [DCPIB, 4-(2-butyl-6,7-dichlor-2-cyclopentyl-indan-1-on-5-yl) oxybutyric acid] | 82.7 ± 3.2 | 2.9 ± 1.1 | 5 µM and 4.8 µM | 35.8 ± 3.1 | – | 36 ± 3 | full blockade | > 90 | Effect on other chloride channels (CFTR, CaCC, ClC) [4]: without any effect; Block of ICl,swell at 10 μM [5]: more than 80%; Effect on RVD at 20 μM ([2]; 20 μM inhibitor, 100 mOsm.l^-1 hypotonic challenge): maximal effect; also recorded: completely impaired volume regulation
6 | CCc1c(C)nc(SCC(=O)Nc2nc(-c3ccc(OC)cc3)cs2)[nH]c1=O [T16Ainh-A01] | 58.4 ± 2 | 1.5 ± 0.6 | 6 µM and 5.5 µM | 39.8 ± 9.6 | maximal effect | 40 ± 10 | – | – | IC50 [6]: 1 µM; inhibition at 3 µM ([1]; 3 μM inhibitor, whole-cell, read-out: Inhibition of hypotonically activated Cl- current at 3 μM): 23 ± 5%
